Test results taken from US20250090502A1, “METHODS OF TREATING, AMELIORATING, AND/OR PREVENTING BACTERIAL INFECTION, OR METHODS OF REDUCING ADVERSE EFFECTS CAUSED BY BACTERIA” (Drexel University, priority 2023, published 2025).
Entries after “also recorded” stand apart in the source; their conditions may differ.

Legend:
Haemophilus influenzae = assay: Susceptibility of planktonic and biofilm H. influenzae strains to kanamycin alone and in combination with HEJ14; type: cell-based
From the text: FIG. 3A: transformation frequency of wild type (Rd) Haemophilus influenzae versus ΔRelA Rd; FIG. 3B: transformation frequency of Rd versus ΔRelA/ΔSpot Rd; FIG. 3C: planktonic treatments: no treatment (left); kanamycin treatment (middle); HEJ14+kanamycin treatment (right). Left=WT Rd; middle=ΔRelA Rd and right=ΔRelA/ΔSpot Rd. FIG. 3D: biofilm treatments: no treatment (left); kanamycin treatment (middle); HEJ14+kanamycin treatment (right). Left=WT Rd; middle=ΔRelA Rd and right=ΔRelA/ΔSpot Rd.
To study the effects of HEJ14, including the risk of resistance mutations arising, the present study constructed single gene knockouts of RelA, SpoT, and MsfI (a gene that provides for survival in phagolysosomes) as well as a double RelA/SpoT knockout in the Gram-negative bacteria Haemophilus influenzae using an overlap PCR mutagenesis strategy.
The present study then evaluated the susceptibility of both planktonic (FIG. 3C) and biofilm cells (FIG. 3D) of WT, ΔRelA and the ΔRelA/ΔSpot H. influenzae strains to kanamycin (kan) alone and in combination with HEJ14. In all cases there was a 2-3 log increase in killing by the combo treatment confirming our initial premise that RelA inhibition would potentiate standard antibiotics.

P. aeruginosa [1] = assay: Pyocyanin toxin production by P. aeruginosa cultures; type: cell-based; conditions: P. aeruginosa culture, single agent
From the text: FIG. 4 illustrates certain aspects of the effect of HEJ14 on pyocyanin toxin production by the Gram-negative bacteria P. aeruginosa, in accordance with some embodiments. […] The bar chart illustrates the effect of HEJ14 on pyocyanin by P. aeruginosa at various HEJ14 concentrations.
Unexpectedly, the present study discovered that some of the hit compounds, as single agents, inhibited pyocyanin toxin production (FIG. 4) in the Gram-negative pathogen P. aeruginosa at higher specific activities (nanomolar) than required for RelA inhibition. Thus, the present study pursued a bipartite strategy of developing the compounds to treat biofilms, and to “convert” pathogens to commensals.

P. aeruginosa [2] = assay: Wax worm model: larvae injected with supernatant of P. aeruginosa cultures grown with HEJ14; type: in vivo; conditions: larvae injected with supernatant of cultures treated with HEJ14 during growth vs untreated culture supernatants
Procedure: (§1) FIG. 5A: HEJ14 reduced toxin production of P. aeruginosa. The label “DMSO 48 h” above the dish indicate that the larvae were injected with supernatant of P. aeruginosa culture grown with DMSO carrier only. […] Kaplan Meier Plot showing increased survival of wax worms receiving supernatant from HEJ14 treated P. aeruginosa culture. FIG. 5B: HEJ14 protected wax worm larvae from the lethality caused by P. aeruginosa infection. In FIG. 5B, larvae were injected with either live P. aeruginosa (10^5 CFU) and HEJ14, or the live bacteria and DMSO carrier only. Right dish: Larvae were injected with live P. aeruginosa (10^5 CFU) & 50 μM HEJ14. The Kaplan Meier Plot showing increased survival of wax worms receiving HEJ14 treated P. aeruginosa.
(§2) Similarly, HEJ14 protected the larvae for 48 hours when live P. aeruginosa were injected simultaneously with a single bolus of HEJ14 (FIG. 5B).

P. aeruginosa [3] = assay: Wax worm model: larvae injected with live P. aeruginosa and HEJ14; type: in vivo; conditions: 48 hours post-injection; live P. aeruginosa (10^5 CFU) injected simultaneously with single bolus of 50 μM HEJ14
Procedure: as §1, §2

Staphylococcus aureus = assay: S. aureus in vitro growth kinetics (OD600); type: cell-based; conditions: stationary phase; HEJ14 125-500 μM, 24 hours
Procedure: (§3) Cultures of a S. aureus expressing an agr-GFP reporter were incubated with vehicle (0 μM) or various concentrations of HEJ14 ([…], 250 μM, and 500 μM). The bacterial growth (OD600) and GFP signal intensity (RFU) were measured for a duration of 24 hours at 20-minute intervals. FIG. 6A: Bacterial growth (OD600).
The present study further discovered that the bacterial anti-virulence effects of HEJ14 works on the Gram-positive pathogens, as well. To determine if HEJ14 has an effect on the Gram-positive bacteria Staphylococcus aureus, the present study performed in vitro growth kinetics assays testing various HEJ14 concentrations and measuring OD600 over time.

agr = assay: S. aureus agr-GFP reporter expression; type: cell-based, Staphylococcus aureus; conditions: stationary phase; HEJ14 125, 250, 500 μM
Procedure: as §3
FIG. 6B: agr expression as measured by GFP signal intensity (RFU) normalized to OD600.
Since the stringent response in S. aureus induces PSMα production and agr activity is essential for psm expression, the present study used an S. aureus agr reporter strain to elucidate the effect of RelA inhibition on agr expression.

S. aureus = assay: Hemolytic activity of S. aureus culture supernatants on sheep's blood agar; type: cell-based, Staphylococcus aureus; conditions: S. aureus cultures incubated with HEJ14 (125 μM) for 24 hrs vs vehicle
Procedure: S. aureus broth cultures were incubated with vehicle or HEJ14 (125 μM) for 24 hrs. The supernatants were filter sterilized (0.2 μm) and 5 μL plated in serial dilutions on 5% sheep's blood agar, starting with V1 (vehicle treated plate) and R1 (HEJ14 treated plate).

[4] = test system: methicillin-resistant S. aureus (MRSA) (strain USA300 LAC::lux); assay: Mouse model of S. aureus intradermal infection (MRSA USA300 LAC::lux); type: in vivo, mice; conditions: single dose of 125 μM or 250 μM HEJ14 at time of infection, day 3, vs vehicle, dose-dependent
Procedure: The dorsal skin surfaces of anesthetized mice were shaved; a 100 μL volume of 3×10^7 CFU of methicillin-resistant S. aureus (MRSA) (strain USA300 LAC::lux) was injected intradermally with, from left to right, vehicle, 125 μM of HEJ14, or 250 μM of HEJ14. FIG. 8A: Digital photographs of dorsal lesions. FIG. 8B: Digital bioluminescent signals of S. aureus. FIG. 8C: images from FIG. 8A were analyzed using Image J to obtain total lesion areas. FIG. 8D Images from FIG. 8B were analyzed by Image J to determine bacterial burden based on photon count.
To investigate the efficacy of a RelA inhibitor against in vivo bacterial infections, the present study employed an established mouse model of S. aureus intradermal infection with the community-associated methicillin-resistant S. aureus infections (CA-MRSA) bioluminescent strain USA300 LAC::lux (Marchitto et al., Proc Natl Acad Sci USA 2019; 116:10917-26; Alphonse et al., Sci Transl Med 2021; 13.; Wang et al., Nat Med 2007; 13:1510-4.; Dong et al., Immunity 2022; 55:1645-62.e7).

Escherichia coli C = assay: E. coli C aggregation under stress conditions; type: cell-based; conditions: high salt, low temperature and amino acid starvation
From the text: Bottom panels: Micrographs of the aggregates (or the lack thereof in the case of HEJ14 treated sample).
E. coli C, when under certain stress conditions, aggregates together and forms highly robust biofilms from a planktonic culture. It was hypothesized that inhibition of RelA would limit aggregation of E. coli C.

Compound: O=C(O)Cn1cc(C[C@H]2NC(=O)NC2=O)nn1 [HEJ14, (R)-2-(4-((2,5-dioxoimidazolidin-4-yl)methyl)-1H-1,2,3-triazol-1-yl)acetic acid]
- increase in killing by the combo treatment (Haemophilus influenzae; HEJ14 in combination with kanamycin vs kanamycin alone, planktonic and biofilm cells of WT, ΔRelA and ΔRelA/ΔSpot H. influenzae): 2-3 log
- planktonic and biofilm H. influenzae growth (Haemophilus influenzae; even in ΔRelA strains): able to inhibit planktonic and biofilm H. influenzae growth
- pyocyanin toxin production (P. aeruginosa [1]): decreased pyocyanin production
- P. aeruginosa virulence in the wax worm model (P. aeruginosa [2]): significantly reduced P. aeruginosa virulence
- larvae survived (P. aeruginosa [3]): 95%
- bacterial growth (OD600) (Staphylococcus aureus): enhanced bacterial growth during the stationary phase
- agr expression (GFP signal normalized to OD600) (agr): dose-dependent decrease in agr expression
- hemolytic effect of culture supernatants on blood agar plates (S. aureus): reduced hemolytic effect
- bioluminescence (in vivo bacterial burden) [4]: significantly decreased
- lesion size [4]: significantly decreased
- E. coli C aggregation (Escherichia coli C): completely absent; also recorded: reduced the amount of E. coli C aggregation
